Calls of active or inactive are those of the source. The calls are words filed in the database; no cut-off is given here.

The experiment has as its system 3T3-L1. In words: Inhibition of AKT/GSK3beta signalling pathway in mouse 3T3-L1 cells assessed as reduction in GSK3beta phosphorylation in early differentiation at 0.5 to 5 uM after 48 hrs by Western blot analysis. The class given is cell-based. Particulars: dose 0.5-5 µM. On the technique in general: A western blot detects proteins with antibodies after separation by electrophoresis.

For `COc1cc(CCc2cc(O)c(O)c(OC)c2)ccc1O`, the inhibition entry was “Active”.
